Results: US10806707B2, “Cannabis oil compositions and methods for preparation thereof” (priority 2015, dated 2020)
Read-outs that look alike come from different tables or passages of the source.

Key:
Assay type in all cases: cell-based
CNR1 (also known as CB1) [1] = target: T1, CNR1 (also known as CB1) (Homo sapiens, UniProt P21554); conditions: read-out: CNR1 β-Arrestin EC50
T1 construct: β-galactosidase enzyme fragment (implied by the complementation read-out)

CNR2 (also known as CB2) [2] = target: T2, CNR2 (also known as CB2) (Homo sapiens, UniProt P34972); assay: β-arrestin GPCR assay (PathHunter), CNR2 activation; conditions: CNR2, β-arrestin recruitment
T2 construct: β-galactosidase enzyme fragment (implied by the complementation read-out)
T2 sequence (P34972 whole entry, species assumed, the tested form may be a part): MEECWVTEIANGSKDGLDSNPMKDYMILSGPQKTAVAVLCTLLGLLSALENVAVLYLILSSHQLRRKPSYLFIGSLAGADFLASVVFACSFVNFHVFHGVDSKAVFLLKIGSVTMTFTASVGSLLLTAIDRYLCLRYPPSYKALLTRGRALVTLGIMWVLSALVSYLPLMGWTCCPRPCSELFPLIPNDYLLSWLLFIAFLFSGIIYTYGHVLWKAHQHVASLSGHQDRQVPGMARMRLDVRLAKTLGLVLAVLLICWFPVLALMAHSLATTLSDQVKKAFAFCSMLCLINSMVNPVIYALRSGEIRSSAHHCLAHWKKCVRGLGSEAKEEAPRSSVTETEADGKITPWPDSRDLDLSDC

CNR1 (also known as CB1) [3] = target: T1, CNR1 (also known as CB1); conditions: read-out: CNR1 cAMP EC50
CNR2 (also known as CB2) [4] = target: T2, CNR2 (also known as CB2); assay: cAMP competitive inhibition immunoassay (HitHunter), CNR2 activation; conditions: CNR2, cAMP assay

T1 sequence (P21554 whole entry, species assumed, the tested form may be a part): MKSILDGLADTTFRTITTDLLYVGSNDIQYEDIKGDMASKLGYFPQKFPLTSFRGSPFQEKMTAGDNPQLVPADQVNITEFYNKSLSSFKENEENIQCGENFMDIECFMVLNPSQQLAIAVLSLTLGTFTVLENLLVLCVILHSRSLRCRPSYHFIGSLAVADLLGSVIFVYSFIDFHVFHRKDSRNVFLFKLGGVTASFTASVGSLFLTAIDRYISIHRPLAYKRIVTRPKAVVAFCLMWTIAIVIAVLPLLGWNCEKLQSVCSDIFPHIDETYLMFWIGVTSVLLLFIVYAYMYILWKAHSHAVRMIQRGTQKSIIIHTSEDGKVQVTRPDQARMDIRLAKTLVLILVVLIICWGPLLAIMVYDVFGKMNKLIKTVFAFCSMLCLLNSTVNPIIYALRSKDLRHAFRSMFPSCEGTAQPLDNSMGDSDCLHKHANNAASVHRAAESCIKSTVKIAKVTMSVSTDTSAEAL

With CCCCCc1cc(O)c2c(c1)OC(C)(C)[C@@H]1CCC(CO)=C[C@@H]21 [Example 11-OH-THC] the EC50 (CNR1 (also known as CB1) [1]) was over 16.7 µM, the EC50 (CNR2 (also known as CB2) [2]) was over 16.7 µM and the EC50 (CNR1 (also known as CB1) [3]) was 0.0108 µM. The EC50 (CNR2 (also known as CB2) [4]) was 0.571 µM.
